Measurements as given in patent publication US10471030B2, “Immunomodulatory and differentiating function selective retinoid and rexinoid compounds in combination with immune modulators for cancer immunotherapy” (Io Therapeutics, Inc., priority 2017, dated 2019).

Tests used:
[1] = test system: Naive CD4+ CD25− FoxP3− cells; assay: Treg cell differentiation from naive T cells in vitro (FoxP3-GFP, flow cytometry); assay type: cell-based, mouse; details: 10 nM
Description: To determine whether a RARα agonist could affect T cell differentiation, T cells were incubated with a RARα agonist to determine its effect on Foxp3 expression. Naive CD4^+ CD25^− FoxP3^− cells were purified from a Foxp3-GFP mouse using flow cytometry by sorting and isolating based upon a GFP^− phenotype. These cells were activated polyclonally with αCD3 in vitro in the presence of IL-2 and TGF-β. These cells were then cultured in media with various concentrations of compound IRX5183 (a RARα agonist) and the expression of FoxP3-GFP was analyzed by flow cytometry. The RARα agonist compound IRX5183 enhanced differentiation of immunosuppressive Treg cells and inhibited differentiation of inflammatory TH17 cells from naïve T cells in vitro (Table 2).

[2] = test system: MM cell lines and MM CD138+ primary cells; assay: BTZ sensitivity of MM cells, clonogenic or cellular recovery, liquid or BM stroma; assay type: cell-based, human; details: BM stroma with 1 μM test agent for 5 days, then BTZ 2.5 nM for 48 hr
Description: 24-well plates were coated with 0.1% gelatin in PBS for 30 min at 37° C. The gelatin solution was removed, and the stromal cells were cultured overnight at a density of 5×10^4 cells/well to obtain a confluent monolayer. At that time, MM cell lines or primary MM cells (1×10^5 in 2 ml) were added to the stroma cultures. The stroma cocultures were incubated at 37° C. in RPMI containing 10% FCS, L-glutamine, and P/S, with or without AGN194310 (1 μM for 5 days), R115866 (1 μM for 5 days), IRX5183 (1 μM for 5 days), or BTZ (2.5 nM for 48 hr).
MM cells were separated from BM stromal cells by gently pipetting several times around the well. Detached cells were centrifuged, resuspended in fresh media, and incubated in a 24-well plate for 1 hr at 37° C. During this short incubation period, contaminating stromal cells attached to the well, while MM cells remained in suspension. MM cells were then recovered by gently pipetting. This protocol was used for qRT-PCR and CFU coculture experiments. The purity achieved using this protocol was confirmed by flow cytometry to be 98%-99% MM cells and less than 2% contaminating stroma.
After treatment, MM cells were collected, washed with PBS, and plated at a density of 5,000 cells/ml in 1 ml of 1.32% methylcellulose supplemented with 30% FBS, 10% BSA, L-glutamine, P/S, and 0.1 mM β-ME. Cells were plated in triplicate in 35-mm culture dishes, incubated at 37° C., and scored for the presence of colonies 14 days later.
To determine whether decreased retinoid signaling contributes to BTZ resistance within the BM niche, MM cell lines and MM CD138+ primary cells were incubated with BM stroma for 5 days, followed by BTZ treatment.
Strategies to overcome microenvironment-dependent chemoprotection have focused on mobilization of cancer cells from the BM niche into the peripheral circulation. It was analyzed whether the change in phenotype and subsequent BTZ resistance of MM cells were lost upon separation from the BM stroma, a process that mimics mobilization. To this end, H929 cells were separated from BM mesenchymal cells following a 5-day stroma co-culture, incubated in fresh media (RPMI with 10% FBS) for 0 to 48 hr, and then treated with BTZ. […] Thus, microenvironment-dependent BTZ resistance induced by the change in MM cell phenotype may not immediately be reversed by tumor mobilization.

[3] = test system: H929 Luc+ cells; assay: subcutaneous xenograft model of MM-niche interactions with WT or Smo-KO stroma, bioluminescence; assay type: in vivo, NSG mice; details: IRX 10 mg/kg i.p. daily, BTZ 0.5 mg/kg i.p. twice weekly
Description: 1×10^6 H929 Luc+ cells and 1×10^6 mouse BM stromal cells were resuspended in 100 μl […]®, diluted with RPMI (1:1), and injected subcutaneously into 16-week-old male NSG mice. After 4 days, treatment with BTZ (0.5 mg/kg i.p. twice weekly) and IRX (10 mg/kg i.p. daily) was initiated. Tumor burden was assessed by bioluminescence using the In Vivo Imaging System (PerkinElmer). For imaging, mice were exposed to 120 mg/kg D-luciferin via intraperitoneal injection […] before imaging and were anesthetized using isoflurane. Images were analyzed with Living Image Software, version 2.5 (PerkinElmer), and data were quantified as photons/second.
To study to what extent an RA-low environment created by the BM stroma and enhanced by MM cells via paracrine Hedgehog signaling contributes to BTZ resistance, a xenograft model of MM-niche interactions was developed. Each mouse carried 2 subcutaneous tumors consisting of H929 Luc+ cells and either WT (anterior tumors) or Smo-KO stroma (posterior tumors). Mice were treated with IRX (10 mg/kg i.p. daily), BTZ (0.5 mg/kg i.p. twice weekly), or a combination of both. The growth of tumors bearing WT or Smo-KO stroma was not different in untreated or IRX-treated groups (FIGS. 9 and 10). […] While some tumors in the treatment group receiving combined IRX and BTZ appeared to have regressed completely, even after anatomical study, this was not the case for all the mice in this group.

[4] = test system: NB4 cells; assay: CFU experiments off and on stroma, NB4 cells; assay type: cell-based; details: 10^−7 M ATRA, IRX5183, or 10^−8 M AM80
Description: (§1) Data across three independent experiments.

[5] = test system: OCI-AML3 cells; assay: CFU experiments off and on stroma, OCI-AML3 cells; assay type: cell-based; details: 10^−6 M ATRA, IRX5183, or 10^−7 M AM80
Description: as §1

SMILES: CC1(C)CCC(C)(C)c2c1cc(C(=O)Nc1cc(F)c(C(=O)O)c(F)c1)c(O)c2Cl [IRX5183]
- Treg cell Percent Differentiation (%) [1]: 90%
- stroma-induced BTZ resistance [2]: overcome
- growth or response of tumors bearing WT versus Smo-KO stroma [3]: not different
- clonogenic growth (CFU) [4]: decrease in clonogenic growth compared to control
- clonogenic growth (CFU) [5]: decrease in clonogenic growth compared to control
